US20060264419A1 (priority 2003, published 2006)

Biological target: 5-HT2A receptors (Rattus norvegicus, UniProt P14842)
Experiment: in-vitro affinity to 5-HT2A receptors, displacement of [3H]ketanserine (Example A1)
Type: binding
Settings: read-out: HT2A IC50
From the text: The 5-HT2A receptors are exposed both to [^3H]ketanserine (a substance which is known for its affinity to the receptor) and also to the test compound. The decrease in the affinity of [^3H]ketanserine to the receptor is an indication of the affinity of the test substance to the 5-HT2A receptor.

Sequence of 5-HT2A receptors (P14842 whole entry): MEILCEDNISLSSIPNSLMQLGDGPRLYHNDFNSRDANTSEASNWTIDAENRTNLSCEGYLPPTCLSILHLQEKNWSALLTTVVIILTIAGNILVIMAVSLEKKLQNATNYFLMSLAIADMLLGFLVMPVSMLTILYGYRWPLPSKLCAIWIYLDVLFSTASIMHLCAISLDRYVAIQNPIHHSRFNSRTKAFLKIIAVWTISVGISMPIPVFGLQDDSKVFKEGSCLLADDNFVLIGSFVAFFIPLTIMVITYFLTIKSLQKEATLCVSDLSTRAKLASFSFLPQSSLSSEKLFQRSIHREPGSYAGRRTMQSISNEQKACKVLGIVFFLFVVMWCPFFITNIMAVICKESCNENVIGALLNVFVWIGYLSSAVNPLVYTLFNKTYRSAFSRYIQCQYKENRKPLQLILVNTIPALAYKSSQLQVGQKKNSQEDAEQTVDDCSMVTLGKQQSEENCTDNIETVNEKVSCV

Question: `O=c1ccccn1Cc1cnn(-c2ccc(-c3ccccc3)cc2)c1-c1ccccc1F` [Example 1012, 1-[1-Biphenyl-4-yl-5-(2-fluorophenyl)-1H-pyrazol-4-ylmethyl]-1H-pyridin-2-one] was tested. Which IC50 did it give?
Answer: The IC50 was 200 nM.

Question: `N#CC(NCc1cnn(-c2ccc(-c3ccccc3)cc2)c1-c1ccccc1F)C(N)=O` (stereo not shown) [Example 987, 2-{[1-Biphenyl-4-yl-5-(2-fluorophenyl)-1H-pyrazol-4-ylmethyl]amino}-2-cyanoacetamide] was tested. Which IC50 did it give?
Answer: Its IC50 is 130 nM.

Question: Which IC50 does the source give for `CC(=O)Nc1cccc(-c2ccc(-n3ncc(CN4CCN(C)CC4)c3-c3ccccc3F)cc2)c1` [Example 988, N-{4′-[5-(2-Fluorophenyl)-4-(4-methyl-piperazin-1-ylmethyl)pyrazol-1-yl]biphenyl-3-yl}acetamide] here?
Answer: Its IC50 is 130 nM.

Question: Which IC50 does the source give for `CN1CCN(Cc2cnn(-c3cccc(-c4ccc(Cl)cc4)c3)c2-c2ccccc2F)CC1` [Example 1049, 1-[1-(4′-Chlorobiphenyl-3-yl)-5-(2-fluoro-phenyl)-1H-pyrazol-4-ylmethyl]-4-methyl-piperazine] here?
Answer: Its IC50 is 390 nM.

Question: With `CN1CCC(N(C)Cc2cnn(-c3ccc(-c4ccccc4)cc3)c2-c2ccccc2F)CC1` [Example 995, [1-Biphenyl-4-yl-5-(2-fluorophenyl)-1H-pyrazol-4-ylmethyl]methyl-(1-methylpiperidin-4-yl)amine] as the compound, how does the IC50 read?
Answer: Its IC50 is 160 nM.

Question: With `Cc1nn(-c2ccccc2)c(C)c1CN1CCN(C(=O)CC(C)C(=O)O)CC1` (stereo not shown) [Example 978] as the compound, how does the IC50 read?
Answer: The IC50 was 100 nM.

Question: How did the IC50 turn out when `CN1CCN(Cc2cnn(-c3ccc(-c4cccnc4)cc3)c2-c2ccccc2F)CC1` [Example 1000, 1-[5-(2-Fluorophenyl)-1-(4-pyridin-3-ylphenyl)-1H-pyrazol-4-ylmethyl]-4-methylpiperazine] was run?
Answer: The IC50 was 170 nM.

Question: `Cc1cccc(-c2c(CN3CCN(C)CC3)cnn2-c2ccc(-c3ccc(F)cc3)cc2)c1` [Example 940, 1-[1-(4′-Fluorobiphenyl-4-yl)-5-m-tolyl-1H-pyrazol-4-ylmethyl]-4-methylpiperazine] was tested. Which IC50 did it give?
Answer: Its IC50 is 37 nM.

Question: With `Fc1ccccc1-c1c(CN2CCCCCC2)cnn1-c1ccc(-c2ccccc2)cc1` [Example 948, 1-[1-Biphenyl-4-yl-5-(2-fluorophenyl)-1H-pyrazol-4-ylmethyl]azepan] as the compound, how does the IC50 read?
Answer: The IC50 was 48 nM.

Question: For `Fc1ccccc1-c1c(CCCN2CCOCC2)cnn1-c1ccc(-c2ccccc2)cc1` [Example 917, 4-{3-[1-Biphenyl-4-yl-5-(2-fluoro-phenyl)-1H-pyrazol-4-yl]propyl}morpholine], which IC50 is on record?
Answer: Its IC50 is 23 nM.

Question: For `CN1CCN(Cc2cnn(-c3ccc(-c4ccccc4Cl)cc3)c2-c2ccccc2F)CC1` [Example 984, 1-[1-(2′-Chlorobiphenyl-4-yl)-5-(2-fluoro-phenyl)-1H-pyrazol-4-ylmethyl]-4-methyl-piperazine], which IC50 is on record?
Answer: The IC50 was 120 nM.

Question: `CCOC(=O)N1CCN(Cc2cnn(-c3ccc(-c4ccccc4)cc3)c2-c2ccccc2F)CC1` [Example 957, Ethyl 4-[1-biphenyl-4-yl-5-(2-fluoro-phenyl)-1H-pyrazol-4-ylmethyl]piperazine-1-carboxylate] was tested. Which IC50 did it give?
Answer: The IC50 was 58 nM.

Question: For `Fc1ccccc1-c1c(C=CCN2CCOCC2)cnn1-c1ccc(-c2ccccc2)cc1` [Example 908, 4-{3-[1-Biphenyl-4-yl-5-(2-fluorophenyl)-1H-pyrazol-4-yl]allyl}morpholine], which IC50 is on record?
Answer: The IC50 was 17 nM.

Question: Which IC50 does the source give for `COc1ccc(-c2c(CN3CCN(CCN4CCCC4)CC3)cnn2-c2ccc(-c3ccc(F)cc3)cc2)cc1` [Example 954, 1-[1-(4′-Fluorobiphenyl-4-yl)-5-(4-methoxy-phenyl)-1H-pyrazol-4-ylmethyl]-4-(2-pyrroli-din-1-ylethyl)piperazine] here?
Answer: The IC50 was 56 nM.

Question: `CN(C)C1CCN(Cc2cnn(-c3ccc(-c4ccccc4)cc3)c2-c2ccccc2F)C1` (stereo not shown) [Example 936, {1-[1-Biphenyl-4-yl-5-(2-fluoro-phenyl)-1H-pyrazol-4-ylmethyl]pyrrolidin-3-yl}dimethyl-amine] was tested. Which IC50 did it give?
Answer: Its IC50 is 35 nM.

Same assay, conditions: target not given; description names affinity to 5-HT2A receptors; read-out: IC50

Question: How did the IC50 turn out when `N#CCNCc1cnn(-c2ccc(-c3ccccc3)cc2)c1-c1ccccc1F` [(124), {[1-Biphenyl-4-yl-5-(2-fluorophenyl)-1H-pyrazol-4-ylmethyl]-amino}acetonitrile] was run?
Answer: The IC50 was 280 nM.

Question: `COc1ccccc1-c1c(CN2CCN(C)CC2)cnn1-c1ccc(-c2cc(F)ccc2F)cc1` [(71), 1-[1-(2′,5′-Difluorobiphenyl-4-yl)-5-(2-methoxyphenyl)-1H-pyrazol-4-ylmethyl]-4-methylpiperazine] was tested. Which IC50 did it give?
Answer: The IC50 was 77 nM.

Question: How did the IC50 turn out when `Fc1ccccc1-c1c(CCl)cnn1-c1ccc(-c2ccccc2)cc1` [(189), 1-Biphenyl-4-yl-4-chloromethyl-5-(2-fluorophenyl)-1H-pyrazole] was run?
Answer: The IC50 was 1100 nM.

Question: For `c1ccc(-c2ccc(-n3ncc(CNCc4ccncc4)c3-c3ccccc3)cc2)cc1` [(170), (1-Biphenyl-4-yl-5-phenyl-1H-pyrazol-4-ylmethyl)pyridin-4-ylmethylamine], which IC50 is on record?
Answer: Its IC50 is 31 nM.

Question: `OCCNCc1cnn(-c2ccc(-c3ccccc3)cc2)c1-c1ccccc1F` [(77), 2-{[1-Biphenyl-4-yl-5-(2-fluorophenyl)-1H-pyrazol-4-ylmethyl]-amino}ethanol] was tested. Which IC50 did it give?
Answer: Its IC50 is 5.2 nM.

Question: Which IC50 does the source give for `CN1CCN(Cc2cnn(-c3ccc(-c4ccc(F)cc4)nc3)c2-c2ccccc2F)CC1` [(116), 1-{5-(2-Fluorophenyl)-1-[6-(4-fluorophenyl)pyridin-3-yl]-1H-pyrazol-4-ylmethyl}-4-methylpiperazine] here?
Answer: Its IC50 is 120 nM.

Question: For `NC(=O)C1CCN(Cc2cnn(-c3ccc(-c4ccccc4)cc3)c2-c2ccccc2F)CC1` [(85), 1-[1-Biphenyl-4-yl-5-(2-fluorophenyl)-1H-pyrazol-4-ylmethyl]-piperidine-4-carboxamide], which IC50 is on record?
Answer: Its IC50 is 870 nM.

Question: How did the IC50 turn out when `CN1CCN(Cc2cnn(-c3ccc(-c4ccccc4F)cc3)c2-c2ccccc2)CC1` [(96), 1-[1-(2′-Fluorobiphenyl-4-yl)-5-phenyl-1H-pyrazol-4-ylmethyl]-4-methylpiperazine] was run?
Answer: The IC50 was 820 nM.

Question: Which IC50 does the source give for `COC(=O)c1cc(NCc2cnn(-c3ccc(-c4ccccc4)cc3)c2-c2ccccc2F)cn1C` [(162), Methyl 4-{[1-biphenyl-4-yl-5-(2-fluorophenyl)-1H-pyrazol-4-ylmethyl]amino}-1-methyl-1H-pyrrole-2-carboxylate] here?
Answer: Its IC50 is 120 nM.

Question: `CC(=O)OCc1cnn(-c2ccc(-c3ccccc3)cc2)c1-c1ccccc1F` [(22), 1-Biphenyl-4-yl-5-(2-fluorophenyl)-1H-pyrazol-4-ylmethyl acetate] was tested. Which IC50 did it give?
Answer: Its IC50 is 1400 nM.

Question: With `CN1CCN(Cc2cnn(-c3ccc(-c4ccsc4)cc3)c2-c2ccco2)CC1` [(70), 1-[5-Furan-2-yl-1-(4-thiophen-3-ylphenyl)-1H-pyrazol-4-ylmethyl]-4-methylpiperazine] as the compound, how does the IC50 read?
Answer: The IC50 was 4.5 nM.

Question: How did the IC50 turn out when `CC(C)(C)OC(=O)N1CCN(Cc2cnn(-c3ccc(-c4ccccc4)cc3)c2-c2ccccc2F)CC1` [(54), tert-Butyl 4-[1-Biphenyl-4-yl-5-(2-fluorophenyl)-1H-pyrazol-4-ylmethyl]piperazine-1-carboxylate] was run?
Answer: Its IC50 is 82 nM.

Question: For `N#CC(NCc1cnn(-c2ccc(-c3ccccc3)cc2)c1-c1ccccc1F)C(N)=O` (stereo not shown) [(136), 2-{[1-Biphenyl-4-yl-5-(2-fluorophenyl)-1H-pyrazol-4-ylmethyl]-amino}-2-cyanoacetamide], which IC50 is on record?
Answer: Its IC50 is 130 nM.

Question: How did the IC50 turn out when `CCOC(=O)N1CCC(NCc2cnn(-c3ccc(-c4ccccc4)cc3)c2-c2ccccc2F)CC1` [(72), Ethyl 4-{[1-biphenyl-4-yl-5-(2-fluorophenyl)-1H-pyrazol-4-ylmethyl]amino}piperidine-1-carboxylate] was run?
Answer: Its IC50 is 580 nM.

Question: Which IC50 does the source give for `CN1CCN(Cc2cnn(-c3ccc(-c4ccccc4F)cc3)c2-c2ccccc2F)CC1` [(63), 1-[1-(2′-Fluorobiphenyl-4-yl)-5-(2-fluorophenyl)-1H-pyrazol-4-ylmethyl]-4-methylpiperazine] here?
Answer: Its IC50 is 93 nM.

Question: How did the IC50 turn out when `Fc1ccc(-c2ccc(-n3ncc(CN4CCCC4)c3-c3ccccc3F)cn2)cc1` [(142), 2-(4-Fluorophenyl)-5-[5-(2-fluorophenyl)-4-pyrrolidin-1-ylmethylpyrazol-1-yl]pyridine] was run?
Answer: Its IC50 is 75 nM.

Question: With `Fc1ccccc1-c1c(CNC2CCNCC2)cnn1-c1ccc(-c2ccccc2)cc1` [(74), [1-Biphenyl-4-yl-5-(2-fluorophenyl)-1H-pyrazol-4-ylmethyl]-piperidin-4-ylamine] as the compound, how does the IC50 read?
Answer: The IC50 was 470 nM.

Question: How did the IC50 turn out when `CN(C)Cc1cnn(-c2ccc(-c3ccccc3)cc2)c1-c1ccccc1F` [(34), [1-Biphenyl-4-yl-5-(2-fluorophenyl)-1H-pyrazol-4-ylmethyl]-dimethylamine] was run?
Answer: The IC50 was 21 nM.

Question: For `CC(C)(C)OC(=O)N1CCN(Cc2cnn(-c3ccc(C(F)(F)F)cc3)c2-c2ccccc2F)CC1` [(84), tert-Butyl 4-[5-(2-fluorophenyl)-1-(4-trifluoromethyl-phenyl)-1H-pyrazol-4-ylmethyl]piperazine-1-carboxylate], which IC50 is on record?
Answer: Its IC50 is 8 nM.

Question: How did the IC50 turn out when `CN1CCN(Cc2cnn(-c3ccc(-c4cc(F)ccc4F)cc3)c2-c2ccc(F)cc2)CC1` [(101), 1-[1-(2′,5′-Difluorobiphenyl-4-yl)-5-(4-fluorophenyl)-1H-pyrazol-4-ylmethyl]-4-methylpiperazine] was run?
Answer: The IC50 was 240 nM.

Question: How did the IC50 turn out when `OC1CC2CCC(C1)N2Cc1cnn(-c2ccc(-c3ccccc3)cc2)c1-c1ccccc1F` (stereo not shown) [(83), 8-[1-Biphenyl-4-yl-5-(2-fluorophenyl)-1H-pyrazol-4-ylmethyl]-8-azabicyclo[3.2.1]octan-3-ol] was run?
Answer: Its IC50 is 1100 nM.

Question: Which IC50 does the source give for `Fc1ccccc1-c1c(C=NNC2=NCCN2)cnn1-c1ccc(-c2ccccc2)cc1` [(166), N-[1-Biphenyl-4-yl-5-(2-fluorophenyl)-1H-pyrazol-4-yl-methylene]-N′-(4,5-dihydro-1H-imidazol-2-yl)hydrazine] here?
Answer: The IC50 was 1200 nM.

Question: Which IC50 does the source give for `Fc1ccc(F)c(-c2ccc(-n3ncc(CNc4cc[nH]n4)c3-c3ccccc3F)cc2)c1` [(140), [1-(2′,5′-Difluorobiphenyl-4-yl)-5-(2-fluorophenyl)-1H-pyrazol-4-ylmethyl]-(1H-pyrazol-3-yl)amine] here?
Answer: The IC50 was 180 nM.

Question: `c1ccc(-c2ccc(-n3ncc(CN4CCNCC4)c3-c3ccccn3)cc2)cc1` [(60), 1-(1-Biphenyl-4-yl-5-pyridin-2-yl-1H-pyrazol-4-ylmethyl)-piperazine] was tested. Which IC50 did it give?
Answer: Its IC50 is 200 nM.

Question: For `O=C(O)CNCc1cnn(-c2ccc(-c3ccccc3)cc2)c1-c1ccccc1F` [(29), {[1-Biphenyl-4-yl-5-(2-fluorophenyl)-1H-pyrazol-4-ylmethyl]-amino}acetic acid], which IC50 is on record?
Answer: The IC50 was 1700 nM.
